Results published in patent US9012475B2, “Method for enhancing anti-tumor effect of a microtubule-targeting drug, and a method for treatment of tumor” (Taiho Pharmaceutical Co., Ltd., priority 2013, dated 2015).
“Also recorded” adds a separate entry of the source. Like-named read-outs stand apart in the source and are kept apart here.

Columns and labels:
[1] = then 24 hours later MK-5108 orally twice per day over 2 days; cited from earlier work
[2] = test system: human-derived uterus cancer cell strain HeLa-luc; settings: for number of CR cases: 5 rats
Text: Cells (1×10^7) of human-derived uterus cancer cell strain HeLa-luc (manufactured by PerkinElmer Co., Ltd.) having a luciferase gene introduced therein were subcutaneously grafted to the right abdomens of nude rats. At the time the volume of a tumor developed from grafted cells reached about 200 mm^3, the rats were divided into groups each consisting of 5 rats according to stratified randomization such that each group had almost the same tumor volume. […] To Group 2 and 3, paclitaxel was administered and, on the next day, Compound 1 (30 mg/kg) was orally administered twice per day for one day or 4 days (sequential administration, see FIG. 1 (A), Sequential treatment). To the rats of Group 4 and 5, paclitaxel was administered and, on the same day, Compound 1 (30 mg/kg) was orally administered twice per day for 2 days or 4 days (concurrent administration, see FIG. 1 (B), Concurrent treatment). Compound 1 was suspended or dissolved in 0.5% (w/v) hydroxypropyl methyl cellulose (HPMC). Paclitaxel was dissolved in Cremophor EL and anhydrous ethanol, diluted with physiological saline so as to obtain a predetermined concentration and put in use.
The presence or absence of a therapeutic effect was determined by measuring the major axis and minor axis of a tumor with time and obtaining a tumor volume (TV), relative tumor volume (RTV) and T/C (%) value (average relative tumor volume ratio of the treatment group to the control group) on day 10 after initiation of administration according to the following expressions. Tumor volume (TV)={(major axis)×(minor axis)^2}/2 Relative tumor volume (RTVn) on measurement day (n)=TVn/TV1 T/C(%)={(average RTVn of treatment group)/(average RTVn of control group)}×100
TV1 represents tumor volume at the administration initiation time
Furthermore, an individual in which a tumor disappeared was specified as CR (complete remission/complete response) and the number of cases was obtained.

human Aurora A = human Aurora A (Homo sapiens (Human), UniProt O14965); assay: Measurement of Aurora A inhibitory activity (IMAP fluorescence polarization kinase assay); format: biochemical; settings: ATP 5 μM, 25° C., 50 minutes
Experimental: (§1) The inhibitory activities of a test compound against Aurora A and Aurora B were measured according to the following method.
Complementary DNA of human Aurora A was fused with a histidine tag at the amino terminal, inserted into an expression vector and highly expressed in Escherichia coli BL21-CodonPlus (DE3)-RIL strain. After Escherichia coli was recovered and lysed, human Aurora A protein fused with a histidine tag was allowed to bind to a nickel chelate column and eluted by imidazole from the column. An active fraction was desalted by a desalting column to obtain purified enzyme.
In measuring inhibitory activity of the compound, first, the test compound was serially diluted by dimethylsulfoxide (DMSO). […] To the mixture, IMAP (registered trade mark) Progressive Binding Reagent diluted 500× with IMAP (registered trade mark) Progressive Binding Buffer A (manufactured by Molecular Devices) was added to terminate the kinase reaction. […] Based on the obtained fluorescence polarization degree, the amount of phosphorylation reaction was obtained.

[3] = test system: human-derived lung cancer cell strain NCI-H460 (H460); assay: Schedule of administration in combination with paclitaxel, NCI-H460 subcutaneous graft; format: in vivo
Experimental: The study was performed according to the method in Example 1. Cells (1×10^7) of human-derived lung cancer cell strain NCI-H460 (H460) were subcutaneously grafted to right abdomens of nude mice. […] Group 1 was defined as a control group, Group 2 and 3 were defined as a paclitaxel single administration group and Compound 1 single administration group, respectively. Group 4 and 5 were defined as an administration group in combination with paclitaxel and Compound 1. Paclitaxel was intravenously administered in a dose of 60 mg/kg twice, i.e., day 1 and day 8 (Group 2, 4 and 5). In Group 3 and 5, Compound 1 was orally administered twice per day in a dose of 60 mg/kg, for 4 days from the next day of paclitaxel administration and for 4 days from day 9 of paclitaxel administration. In Group 4, Compound 1 was orally administered twice per day in a dose of 60 mg/kg from the next day of paclitaxel administration for 2 days and from day 9 for 2 days. In Group 3, 4 and 5, the dose per day of Compound 1 was 120 mg/kg/day. […]
Furthermore, the body weights of mice were measured with time and a body weight change rate (BWC) was computationally obtained according to the following expression. […]

human Aurora B = human Aurora B (Homo sapiens (Human), UniProt Q96GD4); assay: Measurement of Aurora B kinase activity; format: biochemical; settings: ATP 40 μM, 60 minutes
Experimental: as §1
The concentration of the compound at which 50% of the phosphorylation reaction was suppressed was defined as IC50 value (nM).

[4] = test system: human-derived lung cancer cell strain NCI-H460 (H460); assay: Schedule of administration in combination with docetaxel (Example 2 (2)); format: in vivo, nude mice
Experimental: The study was performed according to the method in Example 1, except that docetaxel was used in place of paclitaxel. Furthermore, administration of Compound 1 was initiated from the administration day of docetaxel. Group 1 was defined as a control group. Docetaxel was dissolved in anhydrous ethanol and Tween 80 and thereafter diluted with 5% glucose injection liquid and intravenously administered in a dose of 30 mg/kg twice, i.e., on day 1 and day 8 (Group 2 and 4). In Group 3 and 4, Compound 1 was orally administered twice per day in a dose of 60 mg/kg, from the administration day of docetaxel for 4 days and from day 8 of docetaxel administration for 4 days.
In Group 3 and 4, the dose of Compound 1 per day was 120 mg/kg/day. Note that, in FIG. 2 (B), Group 1 is represented by Control, Group 2 by Docetaxel alone, Group 3 by Compound 1 alone and Group 4 by Combo (4 days).

[5] = Evaluation of oral absorption property; format: in vivo, BALE/cA mice; settings: oral administration in 0.5% HPMC, plasma 0.5-6 hours, LCMS
Experimental: A test compound was suspended or dissolved in 0.5% HPMC and orally administered to BALE/cA mice. At the time points of 0.5, 1, 2, 4 and 6 hours after oral administration, blood was sampled from the back of the eye to obtain blood plasma. The concentration of the compound in the obtained blood plasma was measured by LCMS and evaluated for oral absorption property.

human Aurora B, sequence (Q96GD4 whole entry): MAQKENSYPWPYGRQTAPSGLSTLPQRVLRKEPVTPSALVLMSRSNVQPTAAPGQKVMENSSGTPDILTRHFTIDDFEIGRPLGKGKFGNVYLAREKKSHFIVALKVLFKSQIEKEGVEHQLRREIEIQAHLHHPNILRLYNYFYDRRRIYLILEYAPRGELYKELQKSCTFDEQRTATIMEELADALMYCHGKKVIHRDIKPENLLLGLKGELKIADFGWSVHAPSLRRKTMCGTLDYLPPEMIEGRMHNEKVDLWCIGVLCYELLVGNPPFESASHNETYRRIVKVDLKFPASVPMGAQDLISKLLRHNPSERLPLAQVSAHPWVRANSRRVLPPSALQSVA
human Aurora B, sequence (Q9NQS7 803-916 partner): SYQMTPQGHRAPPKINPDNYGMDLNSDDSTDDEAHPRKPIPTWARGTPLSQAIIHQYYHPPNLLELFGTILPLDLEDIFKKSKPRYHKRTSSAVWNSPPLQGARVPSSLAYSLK
human Aurora A, sequence (O14965 whole entry): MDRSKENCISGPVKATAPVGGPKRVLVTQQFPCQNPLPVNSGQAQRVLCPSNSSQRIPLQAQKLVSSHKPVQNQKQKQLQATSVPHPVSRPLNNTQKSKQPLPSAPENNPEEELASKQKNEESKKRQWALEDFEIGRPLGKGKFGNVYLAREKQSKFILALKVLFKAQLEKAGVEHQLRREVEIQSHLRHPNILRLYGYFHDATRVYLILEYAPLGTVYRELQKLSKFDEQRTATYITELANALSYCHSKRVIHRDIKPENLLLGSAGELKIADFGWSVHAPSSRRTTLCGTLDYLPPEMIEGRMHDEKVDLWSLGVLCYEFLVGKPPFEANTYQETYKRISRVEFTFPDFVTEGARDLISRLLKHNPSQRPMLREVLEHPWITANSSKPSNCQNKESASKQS

O=C(O)[C@]1(Cc2cccc(Nc3nccs3)n2)CC[C@@H](Oc2cccc(Cl)c2F)CC1 [MK-5108]
antitumor effect in combination with docetaxel [1]: enhancement of an antitumor effect is confirmed

Cc1cc(Nc2nc(CC3(C(=O)O)CCN(C(=O)c4cccc(Cl)c4Cl)CC3)ccc2F)n[nH]1 [Production Example 1, 1-(2,3-dichlorobenzoyl)-4-((5-fluoro-6-(5-methyl-1H-pyrazol-3-ylamino)pyridin-2-yl)methyl)piperidine-4-carboxylic acid]
number of CR cases ([2]; Group 2: paclitaxel 10 mg/kg iv, from next day Compound 1 30 mg/kg po twice per day for one day (sequential)): no CR cases
number of CR cases ([2]; Group 3: paclitaxel 10 mg/kg iv, from next day Compound 1 30 mg/kg po twice per day for 4 days (sequential)): 2
toxicity / side effect ([2]; Group 3 and 5: paclitaxel 10 mg/kg iv plus Compound 1 30 mg/kg po bid for 4 days): no serious toxicity such as death was observed
number of CR cases ([2]; Group 4: paclitaxel 10 mg/kg iv, from same day Compound 1 30 mg/kg po twice per day for 2 days (concurrent)): one
number of CR cases ([2]; Group 5: paclitaxel 10 mg/kg iv, from same day Compound 1 30 mg/kg po twice per day for 4 days (concurrent)): 4
IC50 (human Aurora A): 0.0004 µM
toxicity / side effect ([3]; Group 4 and 5: paclitaxel 60 mg/kg iv plus Compound 1 60 mg/kg po bid for 2 or 4 days per cycle): no significant toxicity such as death was observed
tumor volume, Combo (4 days) versus Combo (2 days) ([3]; paclitaxel 60 mg/kg iv day 1 and 8, Compound 1 60 mg/kg po bid for 4 days (Group 5) vs 2 days (Group 4) per 7-day cycle): smaller than that of Group 4; also recorded: stronger antitumor enhancing effect
IC50 (human Aurora B): 0.14 µM
toxicity / side effect ([4]; Group 4: docetaxel 30 mg/kg iv plus Compound 1 60 mg/kg po bid for 4 days per cycle): no significant toxicity such as death was observed
antitumor effect (tumor volume), Combo (4 days) ([4]; docetaxel 30 mg/kg iv day 1 and 8, Compound 1 60 mg/kg po bid for 4 days from day 1 and day 8): an antitumor effect is exerted
oral absorption property (concentration in blood plasma) [5]: satisfactory oral absorption property
